Source: patent US8795739B2, “Iron fortified food product and additive” (Magqu Co. Ltd., priority 2012, dated 2014)

Test system: Caco-2 cells
Test: Iron bioavailability test in the in vitro digestion/Caco-2 cell culture system (ferritin ELISA, Bradford total protein)
Assay type: in vitro ADME, Human
Procedure: The assay followed the guidance of Department of Health, Executive Yuan, R.O.C. (TAIWAN) and was conducted to analyze the cytotoxicity and the iron bioavailability of Fe3O4 microspheres in the in vitro digestion/Caco-2 cell culture system. The iron bioavailability from the test article could be evaluated by an in vitro system including enzymatic digestion, iron uptake and ferritin determination via an Enzyme-linked immunosorbent assay (ELISA).
• Cell line: Human colon adenocarcinoma, clone of Caco-2. BCRC 80182. • Culture medium: Minimum Essential Medium (MEM) without any additional iron, iron conc.<8 μg/L. • Culture condition: 37±1° C. with 5% C02 incubator. • EBSS/MES buffer: Earle's balanced salt solution (EBSS) ? 10 mM MES (2-[4-morpholino]-ethanesulfonic acid) buffer, pH 6.0. • MEM enrichment medium: hydrocortisone (4 mg/L) ? 10 mM PIPES (piperazine-N,N′-bis-[2-ethanesulfonic acid]) ? 1% antibiotic-antimycotic solution ? insulin (5 mg/L) ? sodium selenite (5 μg/L) ? triiodothyronine ([…]) and epidermal growth factor (2 μg//L). • Iron removal solution: 1 mM bathophenanthroline disulfonic acid (BPDS) and 5 mM sodium hydrosulfite were dissolved in the rinse solution. • Rinse solution: 140 mM NaCl ? 5 mM KCI ? 10 mM PIPES, pH 7.0. Grouping:
The test article were two sizes of Fe3O4 microspheres with an average diameter of 800 nanometer (nm) and 3000 nm, respectively. Both microspheres were placed in a buffer with a pH value ranges from 5-7. Preferably, the buffer was water or Phosphate Buffered Saline (PBS). In this experiment, the buffer was Phosphate Buffered Saline.
• The digestion of the test article: 0.5 mL of test article was dissolved in 1 mL of 1 N HCl solution, and incubated at 37±1° C. for 16 hours. The final iron concentration was 100 μM. Phosphate buffered saline was used as the negative control and treated in the same condition without the test article. • Iron bioavailability test: • i. […] Measured the absorbance at 595 nm with an ELISA reader. • ii. […] Determined by, the human ferritin enzyme immunoassay test kit. • ii. […]

SMILES: O=S(=O)([O-])[O-].[Fe+2] [FeSO4]
- Tested Ferritin (Caco-2 cell lysate, 24 hours treatment, 50 μM FeSO4 (positive control)): 61.1 ± 1.6 ng/mL
- Calibrated Ferritin (ferritin calibrated by total protein, Caco-2, 24 hours, 50 μM FeSO4 (positive control)): 255.9±15.4 ng/mg protein
- Iron availability (relative to positive control, Caco-2, 24 hours, 50 μM FeSO4): 100%
